For assay [1], the target named is T1, c-Met kinase domain recombinant protein (Homo sapiens, UniProt P08581).
T1 construct: 50 μL diluted solution of c-Met kinase domain recombinant protein in reaction buffer was added to initiate the reaction
Briefly: biochemical. The conditions noted are these: read-out: Inhibition rate at 10 μM (%). As to the method: Enzymatic reaction substrate Poly(Glu,Tyr)4:1 was diluted to 20 μg/mL in potassium ion free PBS (10 mM sodium phosphate buffer, 150 mM NaCl, pH7.2-7.4), microplate was coated with this solution at 125 μL per well, and reacted at 37° C. for 12-16 hours. Liquid in wells was discarded. Plate washing: the plate was washed 3 times for 5 minutes each with 200 μL per well of T-PBS (potassium ion free PBS containing 0.1% Tween-20).
Into each well was added 49 μL diluted ATP solution in reaction buffer (50 mM HEPES pH 7.4, 50 mM MgCl2, 0.5 mM MnCl2, 0.2 mM Na3VO4, 1 mM DTT), and 1 μL per well of compound to be tested was added, then 50 μL diluted solution of c-Met kinase domain recombinant protein in reaction buffer was added to initiate the reaction, each test was setup with two wells of ATP free control. Reaction was performed in a 37° C. shaker (100 rpm) for 1 hour. Liquid in the wells was discarded, and the plate was washed three times with T-PBS.
Antibody PY99 was added at 100 μL per well (the antibody was 1:500 diluted in T-PBS containing 5 mg/mL BSA), incubated in a 37° C. shaker for 0.5 hour. Liquid in the wells was discarded, and the plate was washed three times with T-PBS.
Goat anti mouse secondary antibody labeled with horseradish peroxidase was added at 100 μL per well (the antibody was 1:2000 diluted in T-PBS containing 5 mg/mL BSA), incubated in a 37° C. shaker for 0.5 hour. Liquid in the wells was discarded, and the plate was washed three times with T-PBS.
Reaction was terminated by adding 50 μL per well of 2M H2SO4, the plate was read at 490 nm using a VERSAmax microplate reader with tunable wavelength.
(§1) Inhibition rate of the sample was calculated using the following equation: […]

Assay [2] concerns the target T1, c-Met kinase domain recombinant protein. The assay can be described thus: biochemical. The conditions noted are these: for inhibition at 10 µM: read-out: Average inhibition rate at 10 μM (%); for inhibition at 1 µM: read-out: Average inhibition rate at 1 μM (%); for inhibition at 0.1 µM: read-out: Average inhibition rate at 0.1 μM (%). On the procedure: Enzymatic reaction substrate Poly(Glu,Tyr)4:1 was diluted to 20 μg/mL in potassium ion free PBS (10 mM sodium phosphate buffer, 150 mM NaCl, pH7.2-7.4), microplate was coated with this solution at 125 μL per well, and reacted at 37° C. for 12-16 hours. Liquid in wells was discarded, then the plate was washed 3 times for 5 minutes each with 200 μL per well of T-PBS (PBS containing 0.1% Tween-20).
Into each well was added 50 μL diluted ATP solution in reaction buffer (50 mM HEPES pH 7.4, 50 mM MgCl2, 0.5 mM MnCl2, 0.2 mM Na3VO4, 1 mM DTT), the final concentration was 5 μM. Test compound was diluted in DMSO to proper concentration, added at 1 μL per well or corresponding level of DMSO (negative control wells), then 49 μL diluted solution of c-Met kinase domain recombinant protein in reaction buffer was added to initiate the reaction, each test was setup with two wells of ATP free control. Reaction was performed in a 37° C. shaker (100 rpm) for 1 hour. The plate was washed three times with T-PBS. Primary antibody PY99 diluted solution was added at 100 μL per well, incubated in a 37° C. shaker for 0.5 hour.
The plate was washed three times with T-PBS. Goat anti mouse secondary antibody labeled with horseradish peroxidase was added at 100 μL per well, incubated in a 37° C. shaker for 0.5 hour. The plate was washed three times with T-PBS. […] Reaction was terminated by adding 50 μL per well of 2M H2SO4, the plate was read at 490 nm using a SPECTRA MAX 190 microplate reader with tunable wavelength.
as §1
IC50 was calculated by fitting the data for a four parameter fit using inhibition curve.

Read-outs that look alike come from different tables or passages of the source.

Our source for the inhibition and IC50 values is US9988381B2, “Five-member-heterocycle fused pyridine compounds, method of producing the same, and use thereof” (SHANGHAI INSTITUTE OF MATERIA MEDICA, CHINESE ACADEMY OF …, priority 2013, dated 2018).

Broadly, the inhibition is the relative decrease from the control value, in per cent. What is called IC50 is the midpoint of a concentration-inhibition curve.

T1 sequence (P08581 1078-1345 limits assumed): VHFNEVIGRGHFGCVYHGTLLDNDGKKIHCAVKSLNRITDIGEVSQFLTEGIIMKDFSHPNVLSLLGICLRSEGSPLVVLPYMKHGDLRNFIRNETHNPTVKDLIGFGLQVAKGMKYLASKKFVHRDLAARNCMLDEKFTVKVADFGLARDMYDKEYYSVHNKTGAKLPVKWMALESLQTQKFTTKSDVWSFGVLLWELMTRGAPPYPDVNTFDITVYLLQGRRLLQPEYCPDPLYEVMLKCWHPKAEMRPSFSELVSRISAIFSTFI

Consider `Cn1cc(-c2cnc3ccn(S(=O)(=O)c4ccccc4[N+](=O)[O-])c3c2)cn1` [Compound 1, 1-(2-nitrobenzenesulfonyl)-6-[(1-methyl)-4-pyrazolyl]-1-H-pyrrolo[3,2-b]pyridine], for which the inhibition at 10 µM in assay [1] and in assay [2] was 88.1% in each case.
Turning to `Cn1cc(-c2cnc3[nH]nc(S(=O)(=O)c4ccccc4[N+](=O)[O-])c3c2)cn1` [Compound 2, 3-(2-nitrobenzenesulfonyl)-5-[(1-methyl)-4-pyrazolyl]-1-H-pyrazolo[3,4-b]pyridine], the inhibition at 10 µM in assay [1] was determined as 92.8%. Besides, in assay [2], the inhibition at 1 µM came to 7% and the inhibition at 10 µM was found to be 92.8%.
Turning to `Cn1cc(-c2cnc3cnn(S(=O)(=O)c4ccccc4[N+](=O)[O-])c3c2)cn1` [Compound 3, 1-(2-nitrobenzenesulfonyl)-6-[(1-methyl)-4-pyrazolyl]-1-H-pyrazolo[4,3-b]pyridine], the inhibition at 10 µM in assay [1] and in assay [2] was 84.6% in each case.
Regarding `Cn1cc(-c2cnc3cnn(S(=O)(=O)c4ccccc4)c3c2)cn1` [Compound 4, 1-benzenesulfonyl-6-[(1-methyl)-4-pyrazolyl]-1-H-pyrazolo[4,3-b]pyridine], the inhibition at 10 µM in assay [1] and in assay [2] was 44.1% in each case.
Take `Cn1cc(-c2cnc3cnn(S(=O)(=O)c4cccc(F)c4)c3c2)cn1` [Compound 5, 1-(3-fluorobenzenesulfonyl)-6-[(1-methyl)-4-pyrazolyl]-1-H-pyrazolo[4,3-b]pyridine]: the inhibition at 10 µM in assay [1] was 57.5%. Moreover, in assay [2], the inhibition at 0.1 µM was 2.1%, the inhibition at 1 µM amounted to 33.8% and the inhibition at 10 µM came to 57.5%.
As for `O=S(=O)(c1c[nH]c2ncc(-c3cccc(Cl)c3)cc12)n1ncc2cccnc21` [Example 109, 1-[(3-chlorophenyl)-1-H-pyrrolo[2,3-b]pyridine-3-sulfonyl]-1-H-pyrazolo[3,4-b]pyridine], in assay [2], the inhibition at 1 µM is 40%.
In the case of `O=S(=O)(c1c[nH]c2ncc(-c3ccc(N4CCOCC4)cc3)cc12)n1ncc2cccnc21` [Example 110, 1-[(4-morpholinylphenyl)-1-H-pyrrolo[2,3-b]pyridine-3-sulfonyl]-1-H-pyrazolo[3,4-b]pyridine], the inhibition at 1 µM in assay [2] was found to be 13.5%.
`Cn1cc(-c2cnc3cnn(S(=O)(=O)c4cccc5ccccc45)c3c2)cn1` [Example 111, 1-(naphthalene-1-sulfonyl)-6-[(1-methyl)-4-pyrazolyl]-1-H-pyrazolo[4,3-b]pyridine]: in assay [2], the inhibition at 0.1 µM came out at 28.6% and the inhibition at 1 µM came to 63.3%.
On to `Cn1cc(-c2cnc3cnn(S(=O)(=O)c4ccc5ccccc5c4)c3c2)cn1` [Example 112, 1-(naphthalene-2-sulfonyl)-6-[(1-methyl)-4-pyrazolyl]-1-H-pyrazolo[4,3-b]pyridine], for which, in assay [2], the inhibition at 1 µM was 48.8%.
On the same count and under the same terms, for `Nc1ccc2ncc(S(=O)(=O)n3ncc4ncc(-c5cc(Cl)cc(Cl)c5)cc43)n2c1` [Example 114, 1-[(6-amino-imidazo[1,2-a]pyridine)-3-sulfonyl]-6-(3,5-dichlorophenyl)-1-H-pyrazolo[4,3-b]pyridine] the value was 30.4%.
As to `O=[N+]([O-])c1ccc2ncc(S(=O)(=O)n3ncc4ncc(-c5ccc(C(F)(F)F)cc5)cc43)n2c1` [Example 115, 1-[(6-nitro-imidazo[1,2-a]pyridine)-3-sulfonyl]-6-(4-trifluoromethylphenyl)-1-H-pyrazolo[4,3-b]pyridine], in assay [2], the inhibition at 0.1 µM came out at 46.6% and the inhibition at 1 µM came to 95.7%.
For the molecule `O=[N+]([O-])c1ccc2ncc(S(=O)(=O)n3ncc4ncc(-c5cc(F)c(F)c(F)c5)cc43)n2c1` [Example 116, 1-[(6-nitro-imidazo[1,2-a]pyridine)-3-sulfonyl]-6-(3,4,5-trifluorophenyl)-1-H-pyrazolo[4,3-b]pyridine], in assay [2], the half-maximal inhibitory concentration (IC50) was determined as 3.6 ± 0.6 nM, the inhibition at 0.1 µM was 70.8% and the inhibition at 1 µM came to 84.6%.
`Nc1ccc2ncc(S(=O)(=O)n3ncc4ncc(-c5ccccc5)cc43)n2c1` [Example 117, 1-[(6-amino-imidazo[1,2-a]pyridine)-3-sulfonyl]-6-phenyl-1-H-pyrazolo[4,3-b]pyridine]: the inhibition at 1 µM in assay [2] amounted to 15.8%.
In the case of `Nc1ccc2ncc(S(=O)(=O)n3ncc4ncc(-c5ccc(F)cc5)cc43)n2c1` [Example 118, 1-[(6-amino-imidazo[1,2-a]pyridine)-3-sulfonyl]-6-(4-fluorophenyl)-1-H-pyrazolo[4,3-b]pyridine], in assay [2], the inhibition at 0.1 µM was 62.7% and the inhibition at 1 µM was determined as 75.5%.
On to `CCCCNc1ccc2ncc(S(=O)(=O)n3ncc4ncc(-c5cnn(C)c5)cc43)n2c1` [Example 119, 1-[(6-n-butylamino-imidazo[1,2-a]pyridine)-3-sulfonyl]-6-[(1-methyl)-4-pyrazolyl]-1-H-pyrazolo[4,3-b]pyridine], for which the inhibition at 1 µM in assay [2] is 26.4%.
In the case of `CC(=O)Nc1ccc2ncc(S(=O)(=O)n3ncc4ncc(-c5cnn(C)c5)cc43)n2c1` [Example 120, 1-[(6-acetylamino-imidazo[1,2-a]pyridine)-3-sulfonyl]-6-[(1-methyl)-4-pyrazolyl]-1-H-pyrazolo[4,3-b]pyridine], the inhibition at 1 µM in assay [2] came to 28.7%.
On to `COc1ccc2ncc(S(=O)(=O)n3ncc4ncc(-c5cncc6ccccc56)cc43)n2c1` [Example 122, 1-[(6-methoxy-imidazo[1,2-a]pyridine)-3-sulfonyl]-6-(4-isoquinolinyl)-1-H-pyrazolo[4,3-b]pyridine], for which, in assay [2], the IC50 was determined as 190 ± 32.7 nM, the inhibition at 0.1 µM was 72.9% and the inhibition at 1 µM is 100%.
Turning to `COc1ccc2cc(-c3cnc4cnn(S(=O)(=O)c5cnc6ccc(OC)cn56)c4c3)ccc2c1` [Example 123, 1-[(6-methoxy-imidazo[1,2-a]pyridine)-3-sulfonyl]-6-(6-methoxy-2-naphthyl)-1-H-pyrazolo[4,3-b]pyridine], in assay [2], the IC50 turned out to be 51.5 ± 6 nM, the inhibition at 0.1 µM was 87% and the inhibition at 1 µM came to 99.3%.
Turning to `COc1ccc2ncc(S(=O)(=O)n3ncc4ncc(-c5cccc(C(F)(F)F)c5)cc43)n2c1` [Example 125, 1-[(6-methoxy-imidazo[1,2-a]pyridine)-3-sulfonyl]-6-(3-trifluoromethylphenyl)-1-H-pyrazolo[4,3-b]pyridine], in assay [2], the IC50 was determined as 55.2 ± 5.6 nM, the inhibition at 0.1 µM is 84.5% and the inhibition at 1 µM was found to be 99.3%.
With `O=S(=O)(c1cnc2ccc(O)cn12)n1ncc2ncc(-c3ccccc3)cc21` [Example 127, 1-[(6-hydroxy-imidazo[1,2-a]pyridine)-3-sulfonyl]-6-phenyl-1H-pyrazolo[4,3-b]pyridine], in assay [2], the IC50 was determined as 30 ± 3.3 nM, the inhibition at 0.1 µM was found to be 93.9% and the inhibition at 1 µM came to 99%.
Regarding `CCOC(=O)c1cnc2cnn(S(=O)(=O)c3cnc4ccc(Br)cn34)c2c1` [Example 130, 1-[(6-bromo-imidazo[1,2-a]pyridine)-3-sulfonyl]-6-ethoxycarbonyl-1-H-pyrazolo[4,3-b]pyridine], in assay [2], the inhibition at 0.1 µM was 16.1% and the inhibition at 1 µM turned out to be 90.8%.
`O=C(Nc1cnc2cnn(S(=O)(=O)c3cnc4ccc(Br)cn34)c2c1)c1ccccc1` [Example 131, 1-[(6-bromo-imidazo[1,2-a]pyridine)-3-sulfonyl]-6-benzamido-1-H-pyrazolo[4,3-b]pyridine]: in assay [2], the inhibition at 0.1 µM is 75.1% and the inhibition at 1 µM was found to be 83.6%.
Turning to `COc1cccc(C(=O)Nc2cnc3cnn(S(=O)(=O)c4cnc5ccc(OC)cn45)c3c2)c1` [Example 134, 1-[(6-methoxy-imidazo[1,2-a]pyridine)-3-sulfonyl]-6-(3-methoxybenzamido)-1-H-pyrazolo[4,3-b]pyridine], in assay [2], the inhibition at 0.1 µM was 66.8% and the inhibition at 1 µM was 56.9%.
